What was measured:
[1] = Binding affinity to Mushroom Tyrosinase assessed as inhibition constant
Mushroom tyrosinase [2] = target: T1, Mushroom tyrosinase (Agaricus bisporus, UniProt O42713+Q00024+C7FF04+C7FF05); assay: Inhibition of mushroom Tyrosinase; format: protein assay
Mushroom tyrosinase [3] = target: T1, Mushroom tyrosinase; assay: Inhibition of mushroom Tyrosinase using L-DOPA as substrate assessed as inhibition constant by Michaelis-Menten analysis; format: protein assay
Tyrosinase [4] = target: T2, Tyrosinase (Homo sapiens, UniProt P14679); assay: Binding affinity to human Tyrosinase assessed as inhibition constant
T2 sequence (P14679 whole entry): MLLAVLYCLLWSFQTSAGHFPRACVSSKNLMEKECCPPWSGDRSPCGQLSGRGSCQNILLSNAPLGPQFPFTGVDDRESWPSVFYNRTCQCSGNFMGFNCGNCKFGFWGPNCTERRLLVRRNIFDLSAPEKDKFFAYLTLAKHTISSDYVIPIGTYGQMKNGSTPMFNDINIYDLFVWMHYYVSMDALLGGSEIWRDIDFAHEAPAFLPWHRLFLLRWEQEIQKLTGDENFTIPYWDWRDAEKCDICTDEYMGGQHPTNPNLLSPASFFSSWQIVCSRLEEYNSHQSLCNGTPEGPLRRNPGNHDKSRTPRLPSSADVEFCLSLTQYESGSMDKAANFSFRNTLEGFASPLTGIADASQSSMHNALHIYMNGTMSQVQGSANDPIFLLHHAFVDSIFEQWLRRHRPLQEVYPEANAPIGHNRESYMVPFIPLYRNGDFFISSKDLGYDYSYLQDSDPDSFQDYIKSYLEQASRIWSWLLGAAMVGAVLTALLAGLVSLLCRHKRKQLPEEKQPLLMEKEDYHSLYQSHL

[5] = Inhibition of Bacterial Tyrosinase; parameters: species or system Bacteria
Mushroom tyrosinase [6] = target: T1, Mushroom tyrosinase; assay: Binding affinity to mushroom Tyrosinase using L-DOPA as substrate assessed as inhibition constant by Michaelis-Menten analysis; format: protein assay
Mushroom tyrosinase [7] = target: T1, Mushroom tyrosinase; assay: Inhibition of mushroom Tyrosinase by using L-DOPA as substrate by spectrophotometric assay; format: protein assay
[8] = Biniding affinity to bacterial Tyrosinase assessed as inhibition constant; parameters: species or system Bacteria
Tyrosinase [9] = target: T2, Tyrosinase; assay: Binding affinity to human Tyrosinase using L-DOPA as substrate assessed as inhibition constant by Michaelis-Menten analysis
Tyrosinase [10] = target: T2, Tyrosinase; assay: Inhibition of human tyrosinase using L-DOPA as substrate by spectrophotometer analysis
[11] = Inhibition of human Tyrosine kinase
[12] = Binding affinity to bacterial Tyrosinase assessed as inhibition constant; parameters: species or system Bacteria
CC(C)(C)c1ccc(O)c(O)c1 [13] = assay: (§1) Binding affinity to mushroom tyrosinase assessed as catalytic constant; format: protein assay; conditions: Agaricus bisporus
[14] = tested on: CC(C)NCC(O)c1ccc(O)c(O)c1; assay: as §1; format: protein assay; conditions: Agaricus bisporus
Cc1ccc(O)c(O)c1 [15] = assay: as §1; format: protein assay; conditions: Agaricus bisporus
NCCc1ccc(O)c(O)c1 [16] = assay: as §1; format: protein assay; conditions: Agaricus bisporus
[17] = tested on: N[C@@H](Cc1ccc(O)c(O)c1)C(=O)O; assay: as §1; format: protein assay; conditions: Agaricus bisporus
[18] = tested on: N[C@@H](Cc1ccc(O)cc1)C(=O)O; assay: as §1; format: protein assay; conditions: Agaricus bisporus
[19] = tested on: N[C@H](Cc1ccc(O)c(O)c1)C(=O)O; assay: as §1; format: protein assay; conditions: Agaricus bisporus
[20] = tested on: O=C(/C=C/c1ccc(O)c(O)c1)O[C@H](Cc1ccc(O)c(O)c1)C(=O)O; assay: as §1; format: protein assay; conditions: Agaricus bisporus
[21] = tested on: O=C(O)/C=C/c1ccc(O)c(O)c1; assay: as §1; format: protein assay; conditions: Agaricus bisporus
O=C(O)Cc1ccc(O)c(O)c1 = assay: as §1; format: protein assay; conditions: Agaricus bisporus
[22] = tested on: O=c1c(O)c(-c2ccc(O)c(O)c2)oc2cc(O)cc(O)c12; assay: as §1; format: protein assay; conditions: Agaricus bisporus
Oc1ccccc1O [23] = assay: as §1; format: protein assay; conditions: Agaricus bisporus
CC(C)(C)c1ccc(O)c(O)c1 [24] = assay: (§2) Binding affinity to mushroom tyrosinase […]; format: protein assay; conditions: Agaricus bisporus
[25] = tested on: CC(C)NCC(O)c1ccc(O)c(O)c1; assay: as §2; format: protein assay; conditions: Agaricus bisporus
COc1ccc(O)cc1 [26] = assay: as §2; format: protein assay; conditions: Agaricus bisporus
Cc1ccc(O)c(O)c1 [27] = assay: as §2; format: protein assay; conditions: Agaricus bisporus
NCCc1ccc(O)c(O)c1 [28] = assay: as §2; format: protein assay; conditions: Agaricus bisporus
NCCc1ccc(O)cc1 [29] = assay: as §2; format: protein assay; conditions: Agaricus bisporus
[30] = tested on: N[C@@H](Cc1ccc(O)c(O)c1)C(=O)O; assay: as §2; format: protein assay; conditions: Agaricus bisporus
[31] = tested on: N[C@@H](Cc1ccc(O)cc1)C(=O)O; assay: as §2; format: protein assay; conditions: Agaricus bisporus
[32] = tested on: N[C@H](Cc1ccc(O)cc1)C(=O)O; assay: as §2; format: protein assay; conditions: Agaricus bisporus
O=C(O)Cc1ccc(O)cc1 [33] = assay: as §2; format: protein assay; conditions: Agaricus bisporus
[34] = tested on: O=c1c(O)c(-c2ccc(O)c(O)c2)oc2cc(O)cc(O)c12; assay: as §2; format: protein assay; conditions: Agaricus bisporus
[35] = tested on: OC[C@H]1O[C@@H](Oc2ccc(O)cc2)[C@H](O)[C@@H](O)[C@@H]1O; assay: as §2; format: protein assay; conditions: Agaricus bisporus
Oc1ccc(OC2CCCCO2)cc1 [36] = assay: as §2; format: protein assay; conditions: Agaricus bisporus
Oc1ccccc1O [37] = assay: as §2; format: protein assay; conditions: Agaricus bisporus
Oc1ccccc1 [38] = assay: as §2; format: protein assay; conditions: Agaricus bisporus
COc1ccc(O)cc1 [39] = assay: (§3) Binding affinity to mushroom tyrosinase assessed as catalytic constant by Michaelis-Menten analysis; format: protein assay; conditions: Agaricus bisporus
NCCc1ccc(O)cc1 [40] = assay: as §3; format: protein assay; conditions: Agaricus bisporus
[41] = tested on: N[C@H](Cc1ccc(O)cc1)C(=O)O; assay: as §3; format: protein assay; conditions: Agaricus bisporus
O=C(O)Cc1ccc(O)cc1 [42] = assay: as §3; format: protein assay; conditions: Agaricus bisporus
Oc1ccccc1 [43] = assay: as §3; format: protein assay; conditions: Agaricus bisporus
[44] = tested on: O=C1/C(=C/c2ccc(O)cc2)Oc2cc(O)ccc21; assay: (§4) Binding affinity to mushroom tyrosinase assessed as catalytic constant using L-DOPA as substrate by Michaelis-Menten analysis; format: protein assay; conditions: Agaricus bisporus
[45] = tested on: OC[C@H]1O[C@@H](Oc2ccc(O)cc2)[C@H](O)[C@@H](O)[C@@H]1O; assay: as §4; format: protein assay; conditions: Agaricus bisporus
[46] = tested on: Oc1ccc(/C=C/c2cc(O)cc(O)c2)cc1; assay: as §4; format: protein assay; conditions: Agaricus bisporus
Oc1ccc(OC2CCCCO2)cc1 [47] = assay: as §4; format: protein assay; conditions: Agaricus bisporus

Mushroom tyrosinase (Agaricus bisporus), sequence (C7FF05 whole entry, looked up): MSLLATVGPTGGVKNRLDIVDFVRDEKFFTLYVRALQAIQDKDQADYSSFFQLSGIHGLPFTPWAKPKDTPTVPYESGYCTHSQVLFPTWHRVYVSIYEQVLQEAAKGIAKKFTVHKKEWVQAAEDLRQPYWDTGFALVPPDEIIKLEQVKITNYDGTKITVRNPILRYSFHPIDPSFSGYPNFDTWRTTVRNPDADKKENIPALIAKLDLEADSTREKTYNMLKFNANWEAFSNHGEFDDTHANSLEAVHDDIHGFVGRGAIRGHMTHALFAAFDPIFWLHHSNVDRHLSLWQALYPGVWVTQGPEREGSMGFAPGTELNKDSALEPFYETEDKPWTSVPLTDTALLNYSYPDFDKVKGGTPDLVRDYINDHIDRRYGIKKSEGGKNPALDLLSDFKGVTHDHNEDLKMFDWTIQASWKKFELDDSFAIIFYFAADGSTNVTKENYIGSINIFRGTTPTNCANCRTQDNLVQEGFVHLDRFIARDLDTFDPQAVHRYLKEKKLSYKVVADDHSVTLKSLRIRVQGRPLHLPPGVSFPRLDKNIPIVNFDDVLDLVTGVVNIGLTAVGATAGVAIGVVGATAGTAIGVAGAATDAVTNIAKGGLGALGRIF
Mushroom tyrosinase (Agaricus bisporus), sequence (C7FF04 whole entry, looked up): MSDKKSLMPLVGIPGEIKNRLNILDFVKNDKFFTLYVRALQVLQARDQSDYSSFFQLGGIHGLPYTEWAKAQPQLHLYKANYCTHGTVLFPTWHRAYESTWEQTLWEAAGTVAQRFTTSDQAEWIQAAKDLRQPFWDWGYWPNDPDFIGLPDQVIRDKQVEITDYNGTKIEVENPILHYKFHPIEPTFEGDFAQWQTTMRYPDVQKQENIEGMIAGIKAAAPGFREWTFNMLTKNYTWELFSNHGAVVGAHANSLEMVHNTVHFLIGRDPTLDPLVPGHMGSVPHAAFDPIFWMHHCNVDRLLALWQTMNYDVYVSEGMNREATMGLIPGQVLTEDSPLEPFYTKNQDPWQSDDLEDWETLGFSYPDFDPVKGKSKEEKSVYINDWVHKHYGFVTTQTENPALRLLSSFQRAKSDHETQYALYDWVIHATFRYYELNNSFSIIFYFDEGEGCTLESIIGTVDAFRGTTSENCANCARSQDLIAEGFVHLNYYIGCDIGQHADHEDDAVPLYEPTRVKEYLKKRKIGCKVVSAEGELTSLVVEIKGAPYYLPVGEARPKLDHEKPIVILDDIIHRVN
Mushroom tyrosinase (Agaricus bisporus), sequence (Q00024 whole entry, looked up): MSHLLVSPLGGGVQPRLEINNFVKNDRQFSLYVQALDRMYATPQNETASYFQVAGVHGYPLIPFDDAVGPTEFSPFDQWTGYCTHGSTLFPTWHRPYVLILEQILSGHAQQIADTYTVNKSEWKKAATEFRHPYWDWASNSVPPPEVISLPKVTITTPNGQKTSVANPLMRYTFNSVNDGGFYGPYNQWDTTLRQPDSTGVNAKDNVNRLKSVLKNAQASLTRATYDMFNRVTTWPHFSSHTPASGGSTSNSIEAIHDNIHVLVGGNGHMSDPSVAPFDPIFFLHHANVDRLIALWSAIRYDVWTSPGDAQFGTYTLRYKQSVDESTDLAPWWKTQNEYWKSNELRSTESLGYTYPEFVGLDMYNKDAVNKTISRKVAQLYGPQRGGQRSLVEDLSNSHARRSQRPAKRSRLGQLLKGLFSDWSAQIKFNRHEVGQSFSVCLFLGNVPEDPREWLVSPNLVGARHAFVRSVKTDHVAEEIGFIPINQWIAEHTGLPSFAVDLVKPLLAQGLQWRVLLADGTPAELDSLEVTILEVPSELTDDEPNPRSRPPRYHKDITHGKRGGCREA
Mushroom tyrosinase (Agaricus bisporus), sequence (O42713 whole entry, looked up): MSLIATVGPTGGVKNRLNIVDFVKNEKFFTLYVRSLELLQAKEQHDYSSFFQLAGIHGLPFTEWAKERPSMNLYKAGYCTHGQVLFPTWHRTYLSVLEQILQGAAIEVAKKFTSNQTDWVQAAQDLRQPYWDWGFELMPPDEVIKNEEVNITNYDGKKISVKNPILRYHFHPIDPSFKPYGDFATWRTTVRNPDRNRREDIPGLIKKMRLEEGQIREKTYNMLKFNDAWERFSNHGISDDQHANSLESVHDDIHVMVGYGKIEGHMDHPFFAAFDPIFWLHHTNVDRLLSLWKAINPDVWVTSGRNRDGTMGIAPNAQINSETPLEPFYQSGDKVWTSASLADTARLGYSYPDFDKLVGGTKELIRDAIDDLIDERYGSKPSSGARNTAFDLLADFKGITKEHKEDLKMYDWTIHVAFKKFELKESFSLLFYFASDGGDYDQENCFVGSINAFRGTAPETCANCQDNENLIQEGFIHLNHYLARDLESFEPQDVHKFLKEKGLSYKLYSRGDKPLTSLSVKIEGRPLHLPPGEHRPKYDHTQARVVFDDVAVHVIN

NCCn1ccc(=O)c(O)c1
Ki [1]: 14 µM

O=c1cc(CSC2CCCCC2)occ1O
IC50 (Mushroom tyrosinase [2]): 0.087 µM

On1ccccc1=S
IC50 (Mushroom tyrosinase [3]): 6.1 µM

NC(=S)N/N=C/c1cc(=O)c(O)co1
IC50 (Mushroom tyrosinase [2]): 10 µM
Ki (Tyrosinase [4]): 260 µM
IC50 [5]: 1.6 µM

Cc1c(C)c2c(c(C)c1O)CCC(C)(C(=O)OCc1cc(=O)c(O)co1)O2 (centres undefined)
IC50 (Mushroom tyrosinase [2]): 5.4 µM

O=C(/C=C/c1ccc2c(c1)OCO2)OCc1cc(=O)c(O)co1
IC50 (Mushroom tyrosinase [2]): 1.4 µM

COc1ccc(C(=O)OCc2cc(=O)c(O)co2)cc1
IC50 (Mushroom tyrosinase [2]): 2 µM

Oc1cccnc1O
Ki (Mushroom tyrosinase [6]): 22 µM

O=C(N[C@@H](Cc1ccccc1)C(=O)OCc1cc(=O)c(O)c[nH]1)OCc1ccccc1
IC50 (Mushroom tyrosinase [2]): 9 µM

O=C1/C(=C/c2ccc(=O)n(O)c2)Oc2cccc(O)c21
Ki (Mushroom tyrosinase [6]): 1.02 µM

O=C1/C(=C/c2ccc(=O)n(O)c2)Oc2cc(O)cc(O)c21
Ki (Mushroom tyrosinase [6]): 1.2 µM

O=C1/C(=C/c2ccc(=O)n(O)c2)Oc2cc(O)ccc21
IC50 (Mushroom tyrosinase [3]): 1.5 µM
Ki (Mushroom tyrosinase [6]): 0.35 µM

O=c1cc(CSc2nnc(-c3ccccc3)n2NCc2ccc(O)cc2O)occ1O
IC50 (Mushroom tyrosinase [7]): 1.4 µM

CCCCCCCCn1cc(O)c(=O)cc1COC(=O)[C@@H](N)Cc1ccccc1
IC50 (Mushroom tyrosinase [2]): 4 µM

CCOC(=O)/C=C/c1cc(=O)c(O)co1
IC50 (Mushroom tyrosinase [2]): 36 µM

CCCCCCCCn1cc(O)c(=O)cc1/C=N/OCC
IC50 (Mushroom tyrosinase [2]): 8 µM

O=c1ccc(CO)cn1O
Ki [8]: 4.1 µM

N[C@@H](Cc1ccc(=O)n(O)c1)C(=O)O
Ki [8]: 39 µM

O=Cc1ccc(OCc2cc(=O)c(O)co2)cc1F
IC50 (Mushroom tyrosinase [2]): 5.3 µM

CCCCCCCCn1cc(O)c(=O)cc1C=O
IC50 (Mushroom tyrosinase [2]): 7.8 µM

O=c1cc(CSCCCCSCc2cc(=O)c(O)co2)occ1O
IC50 (Mushroom tyrosinase [2]): 3 µM

O=c1oc2ccc(O)cc2cc1O
IC50 (Mushroom tyrosinase [3]): 10 µM

CCCCCCn1cc(O)c(=O)cc1/C=C/c1cc(O)cc(O)c1
IC50 (Mushroom tyrosinase [2]): 16 µM

O=c1cc(CSc2nc3ccccc3c(=O)n2CCc2ccccn2)occ1O
IC50 (Mushroom tyrosinase [7]): 0.46 µM

O=C(CCNC(=O)OCc1cc(=O)c(O)co1)OCc1cc(=O)c(O)co1
IC50 (Mushroom tyrosinase [2]): 7 µM

Nc1cc2ccc(O)cc2oc1=O
IC50 (Mushroom tyrosinase [3]): 53 µM

CCn1ccc(=O)c(O)c1
Ki [1]: 4 µM

COc1ccccc1/C=C/C=N/Nc1nnc(SCc2cc(=O)c(O)co2)n1N
IC50 (Mushroom tyrosinase [7]): 7.5 µM

O=c1cc(CSc2nc3ccccc3s2)occ1O
IC50 (Mushroom tyrosinase [7]): > 3 µM

CC(C)[C@@H](NC(=O)[C@@H](N)Cn1ccc(=O)c(O)c1)C(=O)O
IC50 (Mushroom tyrosinase [2]): 10.3 µM

NC(=S)N/N=C\c1ccc(=O)n(O)c1
Ki (Tyrosinase [9]): 47 µM
IC50 (Mushroom tyrosinase [3]): 0.56 µM
Ki (Mushroom tyrosinase [6]): 0.56 µM
Ki [8]: 2 µM

CN(C)c1ccc(-c2nnc(SCc3cc(=O)c(O)co3)nc2-c2ccc(N(C)C)cc2)cc1
IC50 (Mushroom tyrosinase [7]): 0.34 µM

O=c1cc(CSc2nnc(-c3ccc(F)cc3)o2)occ1O
IC50 (Mushroom tyrosinase [7]): 5.3 µM

CC(C)c1ccccc(=O)c1O [ALPHA-THUJAPLICIN]
Ki (Mushroom tyrosinase [6]): 9.5 µM
IC50 (Tyrosinase [10]): > 1000 µM

Cc1c(O)c(=O)ccn1C [DEFERIPRONE]
IC50 (Mushroom tyrosinase [2]): 30 µM

CC(C)c1ccc(O)c(=O)cc1 [GAMMA-THUJAPLICIN]
Ki (Mushroom tyrosinase [6]): 0.07 µM

CC(C)c1cccc(=O)c(O)c1 [HINOKITIOL]
Ki (Mushroom tyrosinase [6]): 0.09 µM

O=c1cc(CO)occ1O [KOJIC ACID]
IC50 [11]: 31 µM

N[C@@H](Cn1ccc(=O)c(O)c1)C(=O)O [L-MIMOSINE]
Ki [12]: 54 µM
Ki [1]: 8 µM

O=c1cccccc1O [TROPOLONE]
Ki (Mushroom tyrosinase [6]): 8 µM

Mushroom tyrosinase (Agaricus bisporus) (from UniProt O42713+Q00024+C7FF04+C7FF05)
kcat (CC(C)(C)c1ccc(O)c(O)c1 [13]): 642 s⁻¹
kcat [14]: 29 s⁻¹
kcat (Cc1ccc(O)c(O)c1 [15]): 842 s⁻¹
kcat (NCCc1ccc(O)c(O)c1 [16]): 475 s⁻¹
kcat [17]: 107 s⁻¹
kcat [18]: 7.9 s⁻¹
kcat [19]: 108 s⁻¹
kcat [20]: 68 s⁻¹
kcat [21]: 403 s⁻¹
kcat (O=C(O)Cc1ccc(O)c(O)c1): 632 s⁻¹
kcat [22]: 6.2 s⁻¹
kcat (Oc1ccccc1O [23]): 874 s⁻¹
Km (CC(C)(C)c1ccc(O)c(O)c1 [24]): 2.8 µM
Km [25]: 7100 µM
Km (COc1ccc(O)cc1 [26]): 80 µM
Km (Cc1ccc(O)c(O)c1 [27]): 100 µM
Km (NCCc1ccc(O)c(O)c1 [28]): 720 µM
Km (NCCc1ccc(O)cc1 [29]): 0.51 µM
Km [30]: 800 µM
Km [31]: 0.21 µM
Km [32]: 2.5 µM
Km (O=C(O)Cc1ccc(O)cc1 [33]): 1910 µM
Km [34]: 0.12 µM
Km [35]: 3000 µM
Km (Oc1ccc(OC2CCCCO2)cc1 [36]): 0.033 µM
Km (Oc1ccccc1O [37]): 0.16 µM
Km (Oc1ccccc1 [38]): 0.7 µM
kcat (COc1ccc(O)cc1 [39]): 184 s⁻¹
kcat (NCCc1ccc(O)cc1 [40]): 26 s⁻¹
kcat [41]: 8.7 s⁻¹
kcat (O=C(O)Cc1ccc(O)cc1 [42]): 44 s⁻¹
kcat (Oc1ccccc1 [43]): 13 s⁻¹
kcat [44]: 2.3 s⁻¹
kcat [45]: 3.8 s⁻¹
kcat [46]: 69 s⁻¹
kcat (Oc1ccc(OC2CCCCO2)cc1 [47]): 1.95 s⁻¹
